Experimental findings from patent publication US7141680B2, “Aromatic compounds possessing antifungal or antibacterial activity” (Genelabs Technologies, Inc., priority 2002, dated 2006) are described below.

The structures appear in SMILES notation. Some results are limits rather than exact numbers.

The subject of this experiment is Aspergillus species. Kind of experiment: Minimum inhibitory concentration (MIC) assay, filamentous fungi. Format: cell-based. Particulars: antifungal activity, lowest concentration at which 75% inhibition of growth is observed after 48 h. The method, then:
The assays described below were used to measure the minimum inhibitory concentration (MIC) of a compound necessary to inhibit visible growth of the organism tested. These assays are adapted from NCCLS protocols M7-A4 and M27-A (NCCLS vol 17:9 and vol 17:2) as modified by Sandven, S., Clin. Micro. (1999) 37:12, p. 3856–3859. MIC values for Aspergillus species were determined using NCCLS protocol M38-P.
All compounds were dissolved in 100% DMSO to a stock concentration of 10 mM and used fresh stock compounds in powder form were kept frozen until needed and used freshly. When used for test purposes, compounds were diluted in the appropriate media depending on the organism being tested.
For yeast and aspergillus species, seven 1:2 serial dilutions of compound in appropriate media buffered with MOPS at pH 7.0 were prepared such that the final starting test compound concentrations were 44.4 μM for yeast and 50 μM aspergillus species. For bacteria, dilutions were made in growth media used for the particular bacteria being tested.
Inoculums are made by incubating Aspergillus species for 7 days at 35° C. on potato dextrose agar slants. Slants are then covered with 1.0 mL of 0.85% saline, one drop of Tween 20 is added and colonies are teased with a sterile transfer loop to create a suspension which is allowed to sit for 5 min so heavier particles can drop out. The upper suspension is separated and adjusted to an optical density of 0.09 to 0.11. The resulting suspension is diluted 1:50, which yields 2× the final inoculum needed. Micro dilution trays are prepared as with yeast and incubated for 48 h at 35° C. For our purposes the MIC is defined as the lowest compound concentration at which 75% inhibition of growth is observed after 48 h.

Take `N=C(N)NCCNC(=O)c1cc2ccc(NC(=O)c3cc4cc(C(=O)NCNC(=N)N)ccc4[nH]3)cc2[nH]1` [Compound 172, 1H-Indole-2,5-dicarboxylic acid 2-{[2-(2-guanidino-ethylcarbamoyl)-1H-indol-6-yl]-amide} 5-guanidinomethyl-amide]: the MIC is no more than 50 µM. `CNCCNC(=O)c1cc2ccc(NC(=O)c3cc4cc(C(=O)NCCNC(=N)N)ccc4[nH]3)cc2[nH]1` [Compound 182, 1H-Indole-2,5-dicarboxylic acid 5-[(2-guanidinoethyl)amide] 2-{[2-(2-methylaminoethylcarbamoyl)-1H-indol-6-yl]amide}]: the MIC is no more than 50 µM. Under `N#C/N=C(/N)NCCNC(=O)c1cc2ccc(NC(=O)c3cc4cc(C(=O)NCCNC(=N)N)ccc4[nH]3)cc2[nH]1` [Compound 184, 1H-Indole-2,5-dicarboxylic acid 5-{[2-(guanidino)ethyl]amide} 2-({2-[2-(N′-cyanoguanidino)ethylcarbamoyl]-1H-indol-6-yl}amide)] stands no more than 50 µM. The compound `N=C(N)NCCNC(=O)c1cc2cc(NC(=O)c3cc4cc(NC(=O)CNC(=N)N)ccc4[nH]3)ccc2[nH]1` [Compound 138, 5-{[5-(2-guanidino-acetylamino)-1H-indole-2-carbonyl]-amino}-1H-indole-2-carboxylic acid (2-guanidino-ethyl)-amide] registered an MIC of no more than 50 µM. `N=C(N)NCCNC(=O)c1cc2cc(NC(=O)c3cc4cc(NC(=O)CNC(=N)N)ccc4o3)ccc2[nH]1` [Compound 135, 5-{[5-(2-guanidino-acetylamino)-benzofuran-2-carbonyl]-amino}-1H-indole-2-carboxylic acid (2-guanidino-ethyl)-amide] gave an MIC of no more than 50 µM. Compound `N=C(N)NCCNC(=O)c1ccc2[nH]c(C(=O)Nc3ccc4[nH]c(C(=O)NCCNC(=N)N)nc4c3)cc2c1` [Compound 175, 1H-Indole-2,5-dicarboxylic acid 5-[(2-guanidino-ethyl)-amide] 2-{[2-(2-guanidino-ethylcarbamoyl)-1H-benzoimidazol-5-yl]-amide)] gave an MIC of no more than 50 µM. On to `CN(CCNC(=N)N)C(=O)c1ccc2[nH]c(C(=O)Nc3ccc4cc(C(=O)NCCNC(=N)N)[nH]c4c3)cc2c1` [Compound 176, 1H-Indole-2,5-dicarboxylic acid 2-{[2-(2-guanidino-ethylcarbamoyl)-1H-indol-6-yl]-amide} 5-[(2-guanidino-ethyl)-methyl-amide]], for which the MIC is no more than 50 µM.

Take `CN(C)CCNC(=O)c1cc2ccc(NC(=O)c3cc4cc(C(=O)NCCNC(=N)N)ccc4[nH]3)cc2[nH]1` [Compound 183, 1H-Indole-2,5-dicarboxylic acid 2-{[2-(2-dimethylaminoethylcarbamoyl)-1H-indol-6-yl]amide} 5-[(2-guanidinoethyl)amide]]: the MIC was no more than 50 µM.

Compound `N=C(N)NCCNC(=O)c1ccc2[nH]c(C(=O)Nc3ccc4cc(C(=O)NCCNC(=N)N)sc4c3)cc2c1` [Compound 178, 1H-Indole-2,5-dicarboxylic acid 5-[(2-guanidino-ethyl)-amide] 2-{[2-(2-guanidino-ethylcarbamoyl)-benzo[b]thiophen-6-yl]-amide}] gave an MIC of no more than 50 µM. `N=C(N)NCNC(=O)c1ccc2[nH]c(C(=O)Nc3ccc4cc(C(=O)NCNC(=N)N)[nH]c4c3)cc2c1` [Compound 173, 1H-Indole-2,5-dicarboxylic acid 5-guanidinomethyl-amide 2-{[2-(guanidinomethyl-carbamoyl)-1H-indol-6-yl]-amide}] returned an MIC of no more than 50 µM. For `CC(=N)NCCNC(=O)c1cc2cc(NC(=O)c3ccc4[nH]c(C(=O)NCCNC(C)=N)cc4c3)ccc2[nH]1` [Compound 9], the MIC was no more than 50 µM. `N=C(N)NCCNC(=O)c1ccc2sc(C(=O)Nc3ccc4sc(C(=O)NCCNC(=N)N)cc4c3)cc2c1` [Compound 177, Benzo[b]thiophene-2,5-dicarboxylic acid 5-[(2-guanidino-ethyl)-amide]2-{[2-(2-guanidino-ethylcarbamoyl)-benzo[b]thiophen-5-yl]-amide}] had an MIC of no more than 50 µM.
